As usually defined, the IC50 is the concentration that gives 50% inhibition. Usually inhibition stands for the change of the read-out against control, counted positive when it falls.

Experiment [1] addresses T1, Human thrombin (Homo sapiens, UniProt P00734).
Experiment [2] deals with Human factor Xa (Homo sapiens, UniProt P00742). The experiment can be described thus: Xa Assay. To be noted: for % Inhibition Factor Xa (30 µM): at 30 µM inhibitor. The experiment is classed as biochemical. The arrangement: purchased Enzyme Research Laboratories, South Bend Ind.
Chain of Human factor Xa (P00742 41-179 limits assumed): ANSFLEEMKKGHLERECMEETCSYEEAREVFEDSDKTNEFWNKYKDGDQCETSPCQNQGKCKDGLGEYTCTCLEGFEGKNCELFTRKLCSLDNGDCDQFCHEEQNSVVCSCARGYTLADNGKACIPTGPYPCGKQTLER
Chain of Human factor Xa (P00742 235-488 limits assumed): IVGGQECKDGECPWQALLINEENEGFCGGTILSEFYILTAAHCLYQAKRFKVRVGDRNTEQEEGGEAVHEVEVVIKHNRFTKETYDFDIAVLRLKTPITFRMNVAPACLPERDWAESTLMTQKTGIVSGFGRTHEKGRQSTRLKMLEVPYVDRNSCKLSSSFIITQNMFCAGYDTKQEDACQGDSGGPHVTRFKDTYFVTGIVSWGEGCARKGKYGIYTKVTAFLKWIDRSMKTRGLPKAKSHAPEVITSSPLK
The target of experiment [3] is T2, recombinant soluble tissue factor and recombinant human factor VIIa (TF-VIIa) (Homo sapiens, UniProt P08709).
T2 construct: conversion of coagulation factor VII to VIIa by Xa; purchased American Diagnostica, Greenwich Conn; host or cells: VIIa purchased; soluble TF made in house in E. coli
T2 sequence (P08709 61-212 limits assumed): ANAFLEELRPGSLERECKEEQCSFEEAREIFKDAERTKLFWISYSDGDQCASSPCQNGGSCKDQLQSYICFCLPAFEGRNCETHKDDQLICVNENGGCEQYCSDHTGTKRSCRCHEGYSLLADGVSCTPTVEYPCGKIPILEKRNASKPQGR
T2 sequence (P08709 213-466 limits assumed): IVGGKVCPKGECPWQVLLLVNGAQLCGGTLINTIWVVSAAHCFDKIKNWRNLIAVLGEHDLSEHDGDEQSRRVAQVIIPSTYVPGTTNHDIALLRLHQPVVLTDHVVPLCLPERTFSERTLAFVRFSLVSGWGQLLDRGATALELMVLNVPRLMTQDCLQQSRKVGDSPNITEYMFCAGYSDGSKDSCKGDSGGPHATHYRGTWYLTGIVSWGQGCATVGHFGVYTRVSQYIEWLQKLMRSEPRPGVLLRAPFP
T2 sequence (P13726 33-251 partner limits assumed): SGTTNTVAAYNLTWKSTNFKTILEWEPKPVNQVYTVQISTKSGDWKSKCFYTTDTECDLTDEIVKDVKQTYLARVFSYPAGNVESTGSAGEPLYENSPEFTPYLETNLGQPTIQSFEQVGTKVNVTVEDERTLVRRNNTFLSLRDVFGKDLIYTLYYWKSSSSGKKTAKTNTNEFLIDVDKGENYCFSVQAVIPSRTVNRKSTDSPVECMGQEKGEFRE
Description: TF-VIIa Assay. The class given is biochemical. The note with it: for IC50: read-out: IC50 TF-VIIa; for inhibition at 30 µM: 1 h, at 30 µM inhibitor.

Experiment [4] deals with T1, Human thrombin. The experiment can be described thus: biochemical.

Turning to `CC(C)Nc1nc(Cl)c(-c2cc(N)ccc2SCC(=O)O)n(CC(=O)NCc2ccc(C(=N)N)cc2)c1=O` [Example 110], in experiment [1], the “% Inhibition Thrombin II (30 µM)” value was found to be 20%. Besides, the “% Inhibition Factor Xa (30 µM)” value in experiment [2] is reported as 15%. Moreover, the IC50 in experiment [3] amounted to 0.05 µM.
`N=C(N)c1ccc(CNC(=O)Cn2c(-c3ccccc3N)cnc(NC3CCC3)c2=O)cc1` [Example 116]: the “% Inhibition Thrombin II (30 µM)” value in experiment [1] turned out to be 27%. The “% Inhibition Factor Xa (30 µM)” value in experiment [2] worked out at 12%. In addition, in experiment [3], the IC50 is 1.2 µM.
`COC(=O)c1cc(N)cc(-c2cnc(NC3CCC3)c(=O)n2CC(=O)NCc2ccc(C(=N)N)cc2)c1` [Example 117]: in experiment [1], the “% Inhibition Thrombin II (30 µM)” value was determined as 21%. Also, the “% Inhibition Factor Xa (30 µM)” value in experiment [2] is 18%. Besides, the IC50 in experiment [3] is 0.033 µM.
Consider `N=C(N)c1ccc(CNC(=O)Cn2c(-c3cc(N)cc(C(=O)O)c3)cnc(NC3CCC3)c2=O)cc1` [Example 118], for which the “% Inhibition Thrombin II (30 µM)” value in experiment [1] is on record as 3%. Also, the IC50 is 52.3 µM in experiment [2] and 0.052 µM in experiment [3].
In the case of `N=C(N)c1ccc(CNC(=O)Cn2c(-c3cc(N)cc(N)c3)cnc(NC3CCC3)c2=O)cc1` [Example 119], the “% Inhibition Thrombin II (30 µM)” value in experiment [1] came out at 45%. For the same compound, in experiment [2], the “% Inhibition Factor Xa (30 µM)” value came out at 26%. The IC50 in experiment [3] was determined as 0.01 µM.
For `COC(=O)c1cc(N)cc(-c2c(Cl)nc(NC3CCC3)c(=O)n2CC(=O)NCc2ccc(C(=N)N)cc2)c1` [Example 127], in that order: 23%, 27% and 0.031 µM.
Regarding `N/N=C(/N)c1ccc(CNC(=O)Cn2c(-c3cccc(N)c3)c(Cl)nc(NC3CCC3)c2=O)cc1` [Example 148], the inhibition at 100 µM in experiment [4] (read-out: % Inhibition Thrombin II at 100 μM) came out at 4%; in experiment [2] (at 100 μM inhibitor), 8%. Further, in experiment [3], the IC50 was 7.03 µM.
For the compound `CC(C)Nc1nc(Cl)c(-c2cccc(N)c2)n(CC(=O)NCC2CCC(C(=N)N)C=N2)c1=O` (stereo not drawn) [Example 150], the results for the IC50 in experiment [4] and in experiment [3] were 25 µM and 0.36 µM, respectively. The “% Inhibition Factor Xa (30 µM)” value in experiment [2] is recorded as 4%.
As to `N=C(NC(=O)OCc1ccccc1)c1ccc(CNC(=O)Cn2c(-c3cccc(N)c3)c(Cl)nc(NC3CCC3)c2=O)cc1` [Example 151], in experiment [1], the “% Inhibition Thrombin II (30 µM)” value is listed as 29%. Also, in experiment [2], the “% Inhibition Factor Xa (30 µM)” value came out at 17%. In addition, the IC50 in experiment [3] was 0.23 µM.
With `Nc1cccc(-c2c(Cl)nc(NC3CCC3)c(=O)n2CC(=O)NCc2ccc(-c3noc(=O)[nH]3)cc2)c1` [Example 152], the IC50 in experiment [4] and in experiment [2] was more than 30 µM throughout. The inhibition at 30 µM in experiment [3] worked out at 28%.
`Nc1cccc(-c2c(Cl)nc(NC3CCC3)c(=O)n2CC(=O)NCc2ccc(-c3n[nH]c(=O)[nH]3)cc2)c1` [Example 153] came in with an IC50 in experiment [4] of more than 30 µM. Also, the “% Inhibition Factor Xa (30 µM)” value in experiment [2] is 8%. Besides, the inhibition at 30 µM in experiment [3] is 12%.
Consider `CC(C)Nc1nc(Cl)c(-c2cccc(N)c2)n(CC(=O)Nc2ccc(S(=O)(=O)NC(=N)N)cc2)c1=O` [Example 155], for which, in experiment [1], the “% Inhibition Thrombin II (30 µM)” value amounted to 2%. In addition, the “% Inhibition Factor Xa (30 µM)” value in experiment [2] came to 11%. The inhibition at 30 µM in experiment [3] came out at 1%.
As to `CC(C)Nc1nc(Cl)c(-c2cccc(N)c2)n(CC(=O)NCc2ccc(C(N)=S)cc2)c1=O` [Example 156], the “% Inhibition Thrombin II (30 µM)” value in experiment [1] is given as 5%. Further, in experiment [2], the “% Inhibition Factor Xa (30 µM)” value was 7%. For the same compound, in experiment [3], the inhibition at 30 µM came to 27%.
Regarding `CC(C)Nc1nc(Cl)c(-c2cccc(N)c2)n(CC(=O)NNc2ccc(C(=N)N)cc2)c1=O` [Example 157], the results for the IC50 in experiment [4], in experiment [2] and in experiment [3] were 35 µM, 64 µM and 0.7 µM, respectively.
In the case of `Nc1ccc(CNC(=O)Cn2c(-c3cccc(N)c3)c(Cl)nc(NC3CCC3)c2=O)cc1` [Example 158], in experiment [1], the “% Inhibition Thrombin II (30 µM)” value turned out to be 6%. In experiment [2], this compound yielded an IC50 of more than 30 µM. Also, the inhibition at 30 µM in experiment [3] came out at 10%.
In the case of `N=C(NCc1ccccc1)c1ccc(CNC(=O)Cn2c(-c3cccc(N)c3)c(Cl)nc(NC3CCC3)c2=O)cc1` [Example 160], in experiment [1], the “% Inhibition Thrombin II (30 µM)” value is 9%. In addition, the “% Inhibition Factor Xa (30 µM)” value in experiment [2] is 7%. Also, the IC50 in experiment [3] is 18 µM.
With `CC(C)NC(=N)c1ccc(CNC(=O)Cn2c(-c3cccc(N)c3)c(Cl)nc(NC3CCC3)c2=O)cc1` [Example 161], the “% Inhibition Thrombin II (30 µM)” value in experiment [1] worked out at 7%. In addition, the IC50 in experiment [3] is 88.4 µM.
Regarding `C/N=C(/NC)c1ccc(CNC(=O)Cn2c(-c3cccc(N)c3)c(Cl)nc(NC3CCC3)c2=O)cc1` [Example 162], the “% Inhibition Thrombin II (30 µM)” value in experiment [1] was 2%. Also, the inhibition at 30 µM in experiment [3] was 35%.
Take `COCCNC(=N)c1ccc(CNC(=O)Cn2c(-c3cccc(N)c3)c(Cl)nc(NC3CCC3)c2=O)cc1` [Example 163]: in experiment [1], the “% Inhibition Thrombin II (30 µM)” value is 4%. Further, in experiment [3], the IC50 is 40 µM.
`COCC/N=C(\NCCOC)c1ccc(CNC(=O)Cn2c(-c3cccc(N)c3)c(Cl)nc(NC3CCC3)c2=O)cc1` [Example 164]: in experiment [1], the “% Inhibition Thrombin II (30 µM)” value came to 5%. For the same compound, the “% Inhibition Factor Xa (30 µM)” value in experiment [2] worked out at 2%. The inhibition at 30 µM in experiment [3] stood at 24%.
For the compound `CN(C)CC/N=C(\NCCN(C)C)c1ccc(CNC(=O)Cn2c(-c3cccc(N)c3)c(Cl)nc(NC3CCC3)c2=O)cc1` [Example 165], the “% Inhibition Thrombin II (30 µM)” value in experiment [1] is 5%. Besides, the “% Inhibition Factor Xa (30 µM)” value in experiment [2] worked out at 4%. The IC50 in experiment [3] amounted to 63 µM.
For `CN(C)CCNC(=N)c1ccc(CNC(=O)Cn2c(-c3cccc(N)c3)c(Cl)nc(NC3CCC3)c2=O)cc1` [Example 166], in that order: 5%, 2% and 63 µM.

These data come from patent publication US6908919B2, “Substituted polycyclic aryl and heteroaryl pyrazinones useful for selective inhibition of the coagulation cascade” (Pharmacia Corporation, priority 1999, dated 2005).
